For this assay, the system named is HHV-6. Description: HHV-6 ELISA in HSB-2 cells. The following applies: Homo sapiens, HSB2. In kind it is cell-based, human herpes virus 6 (HHV 6). The method, then:
(c) HHV-6. In this case, enzyme-linked immunosorbent assay (ELISA) was performed in covalent amine plates (Costar, Cambridge, Mass.). The plates were activated by the addition of a homobifunctional crosslinking agent, bis(sulfosuccinimidyl) suberate, which was dissolved at 1 mg/mL in 30 mL of phosphate buffered saline (PBS: 137 mM NaCl, 2.7 mM KCl, 4.3 mM Na2HPO4, 1.4 mM KH2PO4, pH 7.4) and 300 μL of the crosslinker was added to each well in the covalent plate. The crosslinker reacted with the amine function on the plate for 30 min at room temperature. The byproduct, sodium N-hydroxysuccinimide sulfite, was removed by decanting and washing the plate twice with PBS. Samples consisting of 150 μl of mixed suspended HSB2 cells from the original drug-treated plate were solubilized in an equal volume of 10% Triton X-100 in coating buffer (15 mM Na2CO3, […] NaHCO3, pH 9.6). The plate was covered and then incubated for 1 h at 37° C. in a 5% CO2 atmosphere. These binding conditions facilitated covalent attachment of the antigen to the free end of the crosslinker.
After covalent binding, the antigen solution was decanted and the plate was washed six times in HEPES buffered saline (Shipman, C., Jr., Proc. Soc. Exp. Biol. 130:305-310 (1969)) with 0.05% Tween 20 (HBS-T ), soaking for three min for each wash. […] Absorbance in each well was determined at 450/570 nm.

By IC50 is commonly meant the concentration needed to halve the response being measured. Lower therefore signals greater potency. `O=C(O)P(=O)(O)O` [Foscarnet, reference compound] returned an IC50 of 15 µM. This lies in the double-digit micromolar range.

These data come from patent US6958345B2, “2-hydroxymethylcyclopropylidene methylpurines and -pyrimidines as antiviral agents” (The Regents of the University of Michigan, priority 1997, dated 2005).
